According to patent US5369030A, “Method of inducing cellular differentiations and altering cell phenotype using ceramide analogs” (Duke University, priority 1992, dated 1994):
Read-outs that look alike come from different tables or passages of the source. One block for each molecule: values may come before it.

Columns and labels:
HL-60 cells [1] = experiment: HL-60 differentiation, H2O2 generation; assay type: cell-based, human
Procedure: (§1) Human myelocytic leukemia HL-60 cells (20-45 passages (American Type Culture Collection, Rockville, Md., accession no. CCL 240) were obtained and grown in RPMI 1640 medium (Sigma Chemical Co., St. Louis, Mo.) containing 10% fetal calf serum at 37° C. in 5% CO2 incubator at a cell density of 2×10^5 cells/mi. The cells were washed once with phosphate buffered saline (PBS) and resuspended in serum-free media containing insulin (5 mg/liter) and transferrin (5 mg/liter) for 2-3 hours before treatment with various compounds.
Therefore, 3 μM C14-L-t-APPD was applied to HL-60 cells either alone or in combination with subthreshold levels (0.3 nM) of 1,25-dihydroxyvitamin D3 (D3), and cell differentiation was determined at 60 and 108 hours following treatment by quantitating […] generation, a marker of HL-60 differentiation. Subthreshold levels of D3 refers to levels of D3 that are too low to induce differentiation of HL60 cells.
H2 O2 production was quantitated as described in Goodwin, B. J. and Weinberg, J. B., J. Clin. Invest. 70:699-706 (1982) and Pick, E. and Mizel, D. J. Immunol. Methods 46: 211-226 (1981). For comparison, HL60 cell differentiation obtained with 2 μM C2-ceramide alone and 0.3 nM vitamin D3 are were also determined.

[2] = system: sphingomyelin in HL-60 cells; settings: previous study, Okazaki, T., et al.; cited from earlier work
HL-60 cells [3] = experiment: HL-60 cell growth/proliferation, cells counted with a hemocytometer; assay type: cell-based, human; settings: for cell density: starting density 2×10^5 cells/ml; for IC50 / activity at 1 µM / activity at 2 µM / activity at 3 µM / activity at 4 µM / activity at 5 µM: Homo sapiens; for IC50: read-out: IC50%
Procedure: as §1
HL-60 cells were treated with 3 μM of Cn-L-t-APPD with acyl chain lengths of C6, C8, C10, C12, C14, C16, and C18 (m=4, 6, 8, 10, 12, 14 and 16) in fresh ehtanol solution or with an ethanol vehicle and cell growth was determined following three days of treatment. Cell growth was quantified using a hemocytometer. Cell viability was judged by the ability to exclude trypan blue dye. Viability was always more than 80% unless otherwise described.
HL-60 cells (starting cell density of 2×10^5 cells/ml) were treated with different concentrations of C14-L-t-APPD and cells were counted following 24 and 72 hours of treatment. The results are representative of three experiments. A 1μM dose of C14-L-t-APPD had little or no effect on cell growth at 24 or 72 hours (approximately 105% and 130% of control, respectively). A 2μM dose inhibited cell growth to approximately 65% of the control at both 24 and 72 hours. […] The IC50% was approximately 2 μM (10 fmol/cell). IC50% is the concentration of test compound that causes 50% inhibition of cell growth in comparison with controls. Thus, similar to results with C2-ceramide, C14-APPD inhibited cell proliferation at different durations of treatment.
HL-60 cells (starting cell density of 2×10^5 cells/ml) were treated with 3 μM Cn-L-t-APPD derivatives with N-acyl chain lengths of C6, C8, C10, C12, C14, C16, and C18 (m=4,6,8,10, 12, 14, and 16) and cells were counted at 0, 12, 36, 60, 84 and 108 hours post treatment. The results are representative of 3 experiments.
N-acyl derivatives of 2-amino-1-(4'-nitrophenyl)-1,3-propanediol (Cn-D-t-ANPPD) were tested to determine the effects of chain length on HL-60 cell growth as described in Examples 3 A. HL-60 cells (at a starting cell density of 2×10^5 cells/ml) were treated with 3 μM of the diff analogs (C6, C8, C10, C12, C14, C16 and C18) of Cn-D-t-ANPPD, and cell growth was determined at three days. The control received no Cn-D-t-ANPPD. Treatment of HL-60 cells with C2-ceramide is included for comparison.
HL-60 cells were treated with the indicated concentrations and cell growth was determined following three days of treatment as described in Example 3B.
The suitability of phenylaminopropanediol derivatives as analogs of ceramide allowed further investigation of the structural requirements for ceramide-mediated biology. For these experiments, C14 (N-myristoyl) derivatives of different phenylaminoalcohols were synthesized and examined for their biologic activity. HL-60 cells (starting cell density of 2×10^5 cells/ml) were treated with 3 μM of C14 derivatives C14-L-t-APPD, C14-D-t-ANPPD, C14-D-e-APP-1, C14-L-e-APP-1, C14-APP-3 and C14-D-APP3. The structures of these compounds are provided in Table I. Cell growth was determined at 3 days as described in Example 3A. The results shown are averages of two determinations, and are representative of five different experiments.
and C14-L-e-APP-1 HL-60 cells were treated as described in Example 3B. growth was determined after 3 days of treatment.

HL-60 cells [4] = experiment: HL-60 differentiation, reduction of Nitro blue tetrazolium (NBT); assay type: cell-based, human; settings: 3 μM, three days; for cells acquiring the ability to reduce NBT: control cells 10%
Procedure: as §1
HL-60 cells were treated with 3 μM of C14-D-e-APP-1 or 3 μM C14-L-e-APP-1 for three days in accordance with the procedure described in Example 3D. Cell differentiation was determined by the ability of differentiated cells to reduce Nitro blue tetrazolium (NBT) as described in Okazaki, T. et. al., J. Biol. Chem. 265:15823-15831 (1990).

HL-60 cells [5] = experiment: Uptake of [3H]-labeled compounds; assay type: cell-based, human; settings: [3H]-labeled compound
Procedure: (1R, 2S) 2-(N-[^3 H]-myristoylamino)-1-phenyl-1propanol ([^3 H] C14-L-e-APP-1) and (1S, 2R) 2-(N-[^3 H]-myristoylamino)-1-phenyl-1-propanol ([^3 H]C14-D-e-APP-1) were prepared following the general procedures of Example 1 for synthesis of N-acyl-amino alcohols using [^3 H]-myristoyl chloride. Specific activity was ~3×10^3 cpms/nmol. [^3 H] myristoyl chloride was made from 9,10-[^3 H]-myristic acid and oxalyl chloride in dry benzene.
In studies using [^3 H]-labeled C14-D-e-APP-1 and C14-L-e-APP-1, uptake of the two compounds was nearly identical with 21% of [3 H]-C14-D-e-APP-1 taken up and 20% of [3 H]-C14-L-e-APP-1 taken up.

HL-60 cells [6] = settings: Okazaki et al.; cited from earlier work
HL-60 cells [7] = settings: Okazaki et al.; cited from earlier work; remark: listed apart in the source
[8] = Example 5, 3 μM C14 derivatives, 3 days
[9] = HL-60, 72 h, Example 5, Table IV, 3 days, read-out: CELL GROWTH (% OF CONTROL)
[10] = HL-60, 72 h, Example 5, Table IV, 3 μM, 3 days, read-out: CELL GROWTH (% OF CONTROL)
[11] = HL-60, 24 h, Example 3B, 24 hours, read-out: cell growth, % of control
[12] = HL-60, 72 h, Example 3B, 72 hours, read-out: cell growth, % of control

SMILES: C=C1/C(=C\C=C2/CCC[C@]3(C)[C@@H]([C@H](C)CCCC(C)(C)O)CC[C@@H]23)C[C@@H](O)C[C@@H]1O [1,25-dihydroxyvitamin D3, reference compound]
H2O2 generation (HL-60 cells [1]; 0.3 nM 1,25-dihydroxyvitamin D3, 60 hours): approximately 0.4 nmol H2O2 /10^5 cells
H2O2 generation (HL-60 cells [1]; 0.3 nM 1,25-dihydroxyvitamin D3, 108 hours): ~0.2 nmol/10^5 cells
hydrolysis of sphingomyelin (in words) [2]: caused hydrolysis of sphingomyelin in HL-60 cells

SMILES: CCCCCCCCCCCCC/C=C/[C@@H](O)[C@H](CO)NC(C)=O [C2-ceramide, N-acetyl-C18-sphingosine, reference compound]
H2O2 generation (HL-60 cells [1]; 2 μM C2-ceramide alone, 60 hours): approximately 0.3 nmol H2O2 /10^5 cells
H2O2 generation (HL-60 cells [1]; 2 μM C2-ceramide alone, 108 hours): approximately 0.3 nmol H2O2 /10^5 cells
H2O2 generation, combination (HL-60 cells [1]; 2 μM C2-ceramide in combination with 1,25-dihydroxyvitamin D3): approximately 0.9 nmol/10^5 cells
cell density (HL-60 cells [3]; Example 3C, C2-ceramide, concentration not given, 108 hours): 200000 mL⁻¹
CELL GROWTH (% OF CONTROL) (HL-60 cells [3]; Example 4A, Table II, 3 μM Cn-D-t-ANPPD (C2-ceramide concentration not given), three days): 20 % OF CONTROL
cell growth, % of control (HL-60 cells [3]; [8]): 20%

SMILES: CCCCCCCCCCCCCC(=O)N[C@@H](C)[C@H](O)c1ccccc1 [C14-L-e-APP-1]
level of differentiation (in words) (HL-60 cells [4]; NBT reduction): little activity over control
cells acquiring the ability to reduce NBT (HL-60 cells [4]): 12%
inhibition of HL-60 cell growth (in words) (HL-60 cells [3]; Example 5, Table IV experiment, 1-5 μM, 3 days): no activity
cell growth, % of control (HL-60 cells [3]; [8]): 87%
activity at 1 µM (HL-60 cells [3]; [9]): 101%
activity at 2 µM (HL-60 cells [3]; [9]): 100%
activity at 3 µM (HL-60 cells [3]; [10]): 99%
activity at 4 µM (HL-60 cells [3]; [9]): 100%
activity at 5 µM (HL-60 cells [3]; [9]): 99%

SMILES: CCCCCCCCCCCCC/C=C/[C@@H](O)[C@@H](N)CO [sphingosine, Sphingosine]
HL-60 cell differentiation (in words) (HL-60 cells [6]): do not mimic the effects of ceramide on cell differentiation
HL-60 cell growth (in words) (HL-60 cells [7]): inhibit HL-60 cell growth

Second part, led by results:

IC50% per cell number (HL-60 cells [3]; Example 5, Table IV experiment, HL-60 growth, 3 days): 125 fmol/10^5 cells
IC50 (HL-60 cells [3]; 72 h, Example 5, Table IV experiment, HL-60 growth, 3 days): 2.5 µM
SMILES: CCCCCCCCCCCCCC(=O)N[C@H](C)[C@@H](O)c1ccccc1 [C14-D-e-APP-1]
cells acquiring the ability to reduce NBT (HL-60 cells [4]): 42%
cell growth, % of control (HL-60 cells [3]; [8]): approximately 15%
activity relative to reference (in words) (HL-60 cells [3]; Example 5, 3 μM, 3 days, inhibition of cell growth): as effective as C2-ceramide
activity at 1 µM (HL-60 cells [3]; [9]): 100%
activity at 2 µM (HL-60 cells [3]; [9]): 71%
activity at 3 µM (HL-60 cells [3]; [10]): 45%
activity at 4 µM (HL-60 cells [3]; [9]): 20%
activity at 5 µM (HL-60 cells [3]; [9]): 10%

IC50% per cell (HL-60 cells [3]; Example 3B, 50% inhibition of cell growth, 2×10^5 cells/ml): approximately 10 fmol/cell
IC50 (HL-60 cells [3]; HL-60, Example 3B, 50% inhibition of cell growth, 2×10^5 cells/ml, 24 and 72 hours): ~2 µM
SMILES: CCCCCCCCCCCCCC(=O)N[C@@H](CO)[C@@H](O)c1ccccc1 [C14-L-t-APPD, N-MYRISTOYL-L-THREO-2-AMINO-1-PHENYL-1,3-PROPANDIOL]
effect of combination on cell differentiation (in words) (HL-60 cells [1]; 3 μM C14-L-t-APPD + 0.3 nM 1,25-dihydroxyvitamin D3): synergistic effect on cell differentiation
H2O2 generation, combination (HL-60 cells [1]; 3 μM C14-L-t-APPD + 0.3 nM 1,25-dihydroxyvitamin D3, 60 hours): approximately 1.1 nmol H2O2 /10^5 cells
H2O2 generation, combination (HL-60 cells [1]; 3 μM C14-L-t-APPD + 0.3 nM 1,25-dihydroxyvitamin D3, 108 hours): ~1.0 nmol H2O2 /10^5 cells
H2O2 generation (HL-60 cells [1]; 3 μM C14-L-t-APPD alone, 60 hours): approximately 0.3 nmol/10^5 cells
H2O2 generation (HL-60 cells [1]; 3 μM C14-L-t-APPD alone, 108 hours): ~0.5 nmol/10^5 cells
effect on differentiation relative to C2-ceramide (in words) (HL-60 cells [1]; 3 μM C14-L-t-APPD vs 2 μM C2-ceramide): nearly identical to those of 2 μM C2-ceramide
cell growth, % of control (HL-60 cells [3]; Example 3A, 3 μM Cn-L-t-APPD, three days): ~15%
potency relative to C2-ceramide (in words) (HL-60 cells [3]; Example 3C, 3 μM): equally potent to C2-ceramide
cell density (HL-60 cells [3]; Example 3C, 3 μM, 84 hours): 100000 mL⁻¹
cell density (HL-60 cells [3]; Example 3C, 3 μM, 108 hours): 200000 mL⁻¹
inhibition of cell growth (in words) (HL-60 cells [3]; Example 3C, 3 μM, time course to 108 hours): able to inhibit cell growth by significant amounts
activity at 1 µM (HL-60 cells [3]; [11]): ~105%
activity at 2 µM (HL-60 cells [3]; [11]): ~65%
activity at 3 µM (HL-60 cells [3]; HL-60, 24 h, Example 3B, 3 μM, 24 hours, read-out: cell growth, % of control): < 10%
activity at 4 µM (HL-60 cells [3]; [11]): < 10%
activity at 1 µM (HL-60 cells [3]; [12]): ~130%
activity at 2 µM (HL-60 cells [3]; [12]): ~65%
activity at 3 µM (HL-60 cells [3]; HL-60, 72 h, Example 3B, 3 μM, 72 hours, read-out: cell growth, % of control): < 10%
activity at 4 µM (HL-60 cells [3]; [12]): < 10%

uptake (HL-60 cells [5]): 21%
SMILES: [3H]C(CCCC)C([3H])CCCCCCCC(=O)N[C@H](C)[C@@H](O)c1ccccc1 (stereo partly drawn) [[3 H]-C14-D-e-APP-1, (1S, 2R) 2-(N-[^3 H]-myristoylamino)-1-phenyl-1-propanol]

uptake (HL-60 cells [5]): 20%
SMILES: [3H]C(CCCC)C([3H])CCCCCCCC(=O)N[C@@H](C)[C@H](O)c1ccccc1 (stereo partly drawn) [[3 H]-C14-L-e-APP-1, (1R, 2S) 2-(N-[^3 H]-myristoylamino)-1-phenyl-1propanol]
